Values of other authors in patent US20150216918A1, “FERMENTED SOY NUTRITIONAL SUPPLEMENTS INCLUDING MUSHROOM COMPONENTS” (priority 2010, published 2015).

Tested on: tumor cells

CC(C)CCCCCCCCCCCC(=O)O [MDT-13, 13-methyl-tetradecanoic acid]
induction of apoptosis in tumor cells: induce apoptosis
